Assay results as given in article PMC10553834, “Differentiating the roles of Mycobacterium tuberculosis substrate binding proteins, FecB and FecB2, in iron uptake” (PLOS Pathogens, 2023).

Key:
Format in all cases: binding
FecB D332S = FecB D332S (Mycobacterium tuberculosis, UniProt O53291, D332S)
FecB R240S = FecB R240S (Mycobacterium tuberculosis, UniProt O53291, R240S)
FecB Q336S = FecB Q336S (Mycobacterium tuberculosis, UniProt O53291, Q336S)
FecB E272S = FecB E272S (Mycobacterium tuberculosis, UniProt O53291, E272S)
FecB Q233S = FecB Q233S (Mycobacterium tuberculosis, UniProt O53291, Q233S)
FecB L163R = FecB L163R (Mycobacterium tuberculosis, UniProt O53291, L163R)
FecB R141S = FecB R141S (Mycobacterium tuberculosis, UniProt O53291, R141S)
FecB Y270S = FecB Y270S (Mycobacterium tuberculosis, UniProt O53291, Y270S)

ferric-carboxymycobactin [Fe-cMB]
Kd (FecB D332S): 990 nM
Kd (FecB R240S): 1100 nM
Kd (FecB Q336S): 1400 nM
Kd (FecB E272S): 1730 nM
Kd (FecB Q233S): 1050 nM
Kd (FecB L163R): 1160 nM
Kd (FecB R141S): 1130 nM
Kd (FecB Y270S): 940 nM
